The source of these data is patent US7371764B2, “Quinolin-isoquinolin-and quinazolin-oxyalkylamides and their use as fungicides” (priority 2002, dated 2008).

One series relates to Pythium ultimum. As to the kind of experiment: Pythium ultimum (Damping off) growth inhibition in potato dextrose broth, microtiter plate. Format: cell-based. To be noted: Globisporangium ultimum, 24° C., after 48 hours, read-out: control of fungal infection (inhibition of growth, determined photometrically).
Another series relates to Pyrenophora teres. Format: in vivo. As to conditions: 200 ppm.
For another series, the system named is Septoria nodorum. The format is in vivo. As to conditions: 200 ppm.
Series [1] has as its system Puccinia recondita f.sp. tritici. Format: in vivo. As to conditions: 200 ppm.

The term inhibition denotes how much of the control response was suppressed. One may read the melting point as the temperature, or range, at which the solid turns liquid.

Each structure is given as a SMILES string. Like-named read-outs stand apart in the source and are kept apart here.

Take `CC#CC(C)(C)NC(=O)C(COC)Oc1ccc2ncccc2c1` (centres unmarked) [2(11), 2-(6-quinolinyloxy)-N-(2-methylpent-3-yn-2-yl)-3-methoxypropionamide]: in the series on Pythium ultimum (potato dextrose broth), the inhibition at 20 ppm is greater than 60%.

Turning to `CC#CC(C)(C)NC(=O)C(CC)Oc1ccc2ncncc2c1` (centres unmarked) [2(20), 2-(6-quinazolinoxy)-N-(4-methylpent-2-yn-4-yl) butyramide], in the series with Pyrenophora teres, the “control of fungal infection (preventive fungicidal activity)” value (from here on “control of fungal infection”) is “more than 60%”.

Turning to `CC#CC(C)(C)NC(=O)C(COC)Oc1ccc2ccncc2c1` (centres unmarked) [2(49), 2-(7-isoquinolinyloxy)-N-(2-methylpent-3-yn-2-yl)-3-methoxypropionamide], the melting point lay in the range of 155 to 156 °C. Besides, the inhibition at 20 ppm in the series on Pythium ultimum (potato dextrose broth) was greater than 60%.

As for `CCC(Oc1ccc2ncccc2c1)C(=O)NC(C)(C)C#CCO` (centres unmarked) [10(1), 2-(6-quinolinyloxy)-N-(1-hydroxy-4-methylpent-2-yn-4-yl) butyramide], in the series on Septoria nodorum, the “control of fungal infection” value is “more than 60%”.

As for `CCC(Oc1ccc2ncccc2c1)C(=O)NC(C)(C)C#CCOC` (centres unmarked) [12(1), 2-(6-quinolinyloxy)-N-(1-methoxy-4-methylpent-2-yn-4-yl)butyramide], the inhibition at 20 ppm in the series with Pythium ultimum was greater than 60%.

Take `CCC(Oc1ccc2ncccc2c1)C(=O)NC(C)(C)C#CCO[Si](C)(C)C(C)(C)C` (centres unmarked) [50(1), 2-(6-quinolinyloxy)-N-(1-tert-butyldi-methylsilyloxy-4-methylpent-2-yn-4-yl)butyramide]: the inhibition at 20 ppm in the series with Pythium ultimum is greater than 60%.

Regarding `CCC(Oc1ccc2ncc(Br)cc2c1)C(=O)NC(C)(C)C#CCCCC#N` (centres unmarked) [90(77), 2-(3-bromo-6-quinolinyloxy)-N-(1-cyano-6-methylhept-4-yn-6-yl) butyramide], the “control of fungal infection” value in series [1] is reported as “more than 60%”.
